Measured values as given in ChEMBL document CHEMBL4354828, “Discovery of Taniborbactam (VNRX-5133): A Broad-Spectrum Serine- and Metallo-β-lactamase Inhibitor for Carbapenem-Resistant Bacterial Infections” (J Med Chem, 2020).
Converted amounts (≈) assume the structure as drawn.

What was measured:
[1] = system: Klebsiella pneumoniae; experiment: Inhibition of TEM/CTX-M/SHV/KPC in Klebsiella pneumoniae 964-2 assessed as cefepime antibacterial activity at 4 ug/ml after 16 to 20 hrs by CLSI-based microbroth dilution method (Rvb > […] ug/ml)
[2] = system: Escherichia coli; experiment: Inhibition of TEM/CTX-M/SHV/Cephalosporinase in Escherichia coli CH1 assessed as cefepime antibacterial activity at 4 ug/ml after 16 to 20 hrs by CLSI-based microbroth dilution method (Rvb > […] ug/ml)
[3] = system: Klebsiella pneumoniae; experiment: Antibacterial activity against Klebsiella pneumoniae UNT-065-1 expressing CTX-M14 infected in CD1 mouse assessed as log reduction in viable bacterial count in lung at 16 mg/kg, sc administered as single dose co-treated with 32 mg/kg cefepime and measured after 24 hrs post infection (reference value: 9.27 +/- 0.21); assay type: functional
[4] = system: Klebsiella pneumoniae; experiment: Effect on growth of Klebsiella pneumoniae A-1797 expressing KPC-2/VIM-4/CMY-4 after 16 to 20 hrs by CLSI-based microbroth dilution method; assay type: organism-based; conditions: in vivo
[5] = system: Klebsiella pneumoniae; experiment: Effect on growth of Klebsiella pneumoniae 11978 expressing OXA-48 after 16 to 20 hrs by CLSI-based microbroth dilution method; assay type: organism-based; conditions: in vivo
[6] = system: Klebsiella pneumoniae; experiment: Inhibition of OXA-48 in Klebsiella pneumoniae assessed as meropenem antibacterial activity at 4 ug/ml after 16 to 20 hrs by CLSI-based microbroth dilution method (Rvb >= […] ug/ml)
[7] = biological target: Stromelysin-1 (Homo sapiens, UniProt P08254); experiment: Inhibition of human MMP3 at 100 uM
[8] = biological target: Cytochrome P450 2D6 (Homo sapiens, UniProt P10635); experiment: Inhibition of human CYP2D6 at 100 uM; assay type: ADME
[9] = system: Klebsiella pneumoniae; experiment: Inhibition of TEM/CTX-M/SHV in Klebsiella pneumoniae 9032 assessed as cefepime antibacterial activity at 4 ug/ml after 16 to 20 hrs by CLSI-based microbroth dilution method (reference value: […] ug/ml)
[10] = biological target: Cytochrome P450 3A4 (Homo sapiens, UniProt P08684); experiment: Inhibition of human CYP3A4 at 100 uM; assay type: ADME
[11] = Inhibition of bacterial SHV-5 using cefotaxime as substrate preincubated for 15 mins followed by susbtrate addition and measured after 10 mins by spectrophotometric method; parameters: species or system Bacteria
[12] = Cytotoxicity against mouse 3T3 cells assessed as growth inhibition at 256 ug/ml relative to control; assay type: cell-based; conditions: NIH3T3 cells, read-out: Activity
[13] = system: Klebsiella pneumoniae; experiment: Effect on growth of wild type Klebsiella pneumoniae CI 09 after 16 to 20 hrs by CLSI-based microbroth dilution method; assay type: organism-based
[14] = biological target: Matrix metalloproteinase-9 (Homo sapiens, UniProt P14780); experiment: Inhibition of human MMP9 at 100 uM
[15] = Cytotoxicity against human MRC5 cells assessed as growth inhibition at 256 ug/ml relative to control; assay type: cell-based; conditions: read-out: Activity
[16] = system: Klebsiella pneumoniae; experiment: Inhibition of KPC/Cephalosporinase in Klebsiella pneumoniae 664-1 assessed as cefepime antibacterial activity at 4 ug/ml after 16 to 20 hrs by CLSI-based microbroth dilution method (Rvb > […] ug/ml)
[17] = biological target: Voltage-gated inwardly rectifying potassium channel KCNH2 (Homo sapiens, UniProt Q12809); experiment: Inhibition of human ERG at 100 uM
[18] = system: Escherichia coli; experiment: Effect on growth of wild type Escherichia coli ATCC 25922 after 16 to 20 hrs by CLSI-based microbroth dilution method; assay type: organism-based; conditions: in vitro
[19] = system: Escherichia coli; experiment: Effect on growth of Escherichia coli J53 expressing SHV5/ AmpC/TEM-1 after 16 to 20 hrs by CLSI-based microbroth dilution method; assay type: organism-based; conditions: in vivo
[20] = biological target: Cytochrome P450 2C9 (Homo sapiens, UniProt P11712); experiment: Inhibition of human CYP2C9 at 100 uM; assay type: ADME
[21] = biological target: Cytochrome P450 1A2 (Homo sapiens, UniProt P05177); experiment: Inhibition of human CYP1A2 at 100 uM; assay type: ADME
[22] = system: Klebsiella aerogenes; experiment: Effect on growth of Enterobacter aerogenes 188548 expressing AmpC after 16 to 20 hrs by CLSI-based microbroth dilution method; assay type: organism-based; conditions: in vivo

Sequence of Cytochrome P450 2C9 (P11712 whole entry): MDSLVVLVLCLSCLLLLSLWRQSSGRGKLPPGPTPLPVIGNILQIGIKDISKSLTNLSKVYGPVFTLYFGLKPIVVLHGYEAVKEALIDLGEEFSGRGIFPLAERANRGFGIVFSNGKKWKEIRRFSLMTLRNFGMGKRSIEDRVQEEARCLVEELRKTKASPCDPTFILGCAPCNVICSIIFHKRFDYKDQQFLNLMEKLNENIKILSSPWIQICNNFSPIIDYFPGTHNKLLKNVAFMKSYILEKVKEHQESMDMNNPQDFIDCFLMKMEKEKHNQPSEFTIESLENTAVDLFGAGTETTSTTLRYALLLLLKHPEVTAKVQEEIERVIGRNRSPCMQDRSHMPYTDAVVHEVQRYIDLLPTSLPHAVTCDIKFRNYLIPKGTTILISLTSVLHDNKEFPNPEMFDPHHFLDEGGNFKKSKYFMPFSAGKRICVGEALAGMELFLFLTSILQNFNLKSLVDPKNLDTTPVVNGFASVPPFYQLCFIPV
Sequence of Cytochrome P450 3A4 (P08684 whole entry): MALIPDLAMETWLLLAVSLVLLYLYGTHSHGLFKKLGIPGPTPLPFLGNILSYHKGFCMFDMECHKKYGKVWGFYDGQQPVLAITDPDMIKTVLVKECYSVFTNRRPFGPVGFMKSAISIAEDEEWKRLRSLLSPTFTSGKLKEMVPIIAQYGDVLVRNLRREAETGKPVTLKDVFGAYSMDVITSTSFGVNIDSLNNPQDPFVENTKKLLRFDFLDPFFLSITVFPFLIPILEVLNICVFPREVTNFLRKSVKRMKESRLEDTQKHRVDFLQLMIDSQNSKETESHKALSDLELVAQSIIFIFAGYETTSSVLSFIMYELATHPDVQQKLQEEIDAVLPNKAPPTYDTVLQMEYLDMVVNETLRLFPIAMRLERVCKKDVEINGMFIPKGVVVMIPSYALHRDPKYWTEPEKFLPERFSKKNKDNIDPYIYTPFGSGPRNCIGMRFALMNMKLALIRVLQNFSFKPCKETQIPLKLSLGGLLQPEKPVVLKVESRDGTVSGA
Sequence of Cytochrome P450 2D6 (P10635 whole entry): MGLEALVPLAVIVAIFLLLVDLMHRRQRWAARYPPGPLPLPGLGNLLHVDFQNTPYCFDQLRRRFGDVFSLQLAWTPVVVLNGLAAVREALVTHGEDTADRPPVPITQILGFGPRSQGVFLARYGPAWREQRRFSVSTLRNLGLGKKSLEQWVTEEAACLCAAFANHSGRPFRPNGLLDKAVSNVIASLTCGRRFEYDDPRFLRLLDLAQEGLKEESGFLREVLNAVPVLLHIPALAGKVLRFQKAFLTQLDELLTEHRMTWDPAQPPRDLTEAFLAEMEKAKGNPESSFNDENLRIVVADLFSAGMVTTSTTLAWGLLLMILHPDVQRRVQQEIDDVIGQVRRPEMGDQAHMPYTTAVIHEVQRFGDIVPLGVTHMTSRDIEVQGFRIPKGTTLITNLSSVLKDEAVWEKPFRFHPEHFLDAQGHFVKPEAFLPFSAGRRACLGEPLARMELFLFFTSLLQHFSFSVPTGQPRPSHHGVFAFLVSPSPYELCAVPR
Sequence of Matrix metalloproteinase-9 (P14780 whole entry): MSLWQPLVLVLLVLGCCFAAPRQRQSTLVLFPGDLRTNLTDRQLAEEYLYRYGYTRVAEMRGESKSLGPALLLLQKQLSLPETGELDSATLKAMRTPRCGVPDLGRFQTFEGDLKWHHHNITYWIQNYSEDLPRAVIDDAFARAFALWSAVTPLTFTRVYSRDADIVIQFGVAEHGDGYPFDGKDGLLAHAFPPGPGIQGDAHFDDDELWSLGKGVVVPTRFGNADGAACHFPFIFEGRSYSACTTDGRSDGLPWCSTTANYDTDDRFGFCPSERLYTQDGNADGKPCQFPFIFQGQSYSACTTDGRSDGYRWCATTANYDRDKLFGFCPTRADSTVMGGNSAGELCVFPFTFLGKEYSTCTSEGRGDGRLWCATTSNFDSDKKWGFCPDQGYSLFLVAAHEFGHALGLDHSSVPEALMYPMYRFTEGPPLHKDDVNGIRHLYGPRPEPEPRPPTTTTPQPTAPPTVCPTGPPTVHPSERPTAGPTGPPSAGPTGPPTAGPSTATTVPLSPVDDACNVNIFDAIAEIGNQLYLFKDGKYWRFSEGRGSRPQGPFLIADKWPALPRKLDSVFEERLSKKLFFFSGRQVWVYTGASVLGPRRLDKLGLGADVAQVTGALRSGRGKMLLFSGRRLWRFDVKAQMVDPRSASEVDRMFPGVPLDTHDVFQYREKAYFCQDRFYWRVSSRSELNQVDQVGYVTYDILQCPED
Sequence of Voltage-gated inwardly rectifying potassium channel KCNH2 (Q12809 whole entry): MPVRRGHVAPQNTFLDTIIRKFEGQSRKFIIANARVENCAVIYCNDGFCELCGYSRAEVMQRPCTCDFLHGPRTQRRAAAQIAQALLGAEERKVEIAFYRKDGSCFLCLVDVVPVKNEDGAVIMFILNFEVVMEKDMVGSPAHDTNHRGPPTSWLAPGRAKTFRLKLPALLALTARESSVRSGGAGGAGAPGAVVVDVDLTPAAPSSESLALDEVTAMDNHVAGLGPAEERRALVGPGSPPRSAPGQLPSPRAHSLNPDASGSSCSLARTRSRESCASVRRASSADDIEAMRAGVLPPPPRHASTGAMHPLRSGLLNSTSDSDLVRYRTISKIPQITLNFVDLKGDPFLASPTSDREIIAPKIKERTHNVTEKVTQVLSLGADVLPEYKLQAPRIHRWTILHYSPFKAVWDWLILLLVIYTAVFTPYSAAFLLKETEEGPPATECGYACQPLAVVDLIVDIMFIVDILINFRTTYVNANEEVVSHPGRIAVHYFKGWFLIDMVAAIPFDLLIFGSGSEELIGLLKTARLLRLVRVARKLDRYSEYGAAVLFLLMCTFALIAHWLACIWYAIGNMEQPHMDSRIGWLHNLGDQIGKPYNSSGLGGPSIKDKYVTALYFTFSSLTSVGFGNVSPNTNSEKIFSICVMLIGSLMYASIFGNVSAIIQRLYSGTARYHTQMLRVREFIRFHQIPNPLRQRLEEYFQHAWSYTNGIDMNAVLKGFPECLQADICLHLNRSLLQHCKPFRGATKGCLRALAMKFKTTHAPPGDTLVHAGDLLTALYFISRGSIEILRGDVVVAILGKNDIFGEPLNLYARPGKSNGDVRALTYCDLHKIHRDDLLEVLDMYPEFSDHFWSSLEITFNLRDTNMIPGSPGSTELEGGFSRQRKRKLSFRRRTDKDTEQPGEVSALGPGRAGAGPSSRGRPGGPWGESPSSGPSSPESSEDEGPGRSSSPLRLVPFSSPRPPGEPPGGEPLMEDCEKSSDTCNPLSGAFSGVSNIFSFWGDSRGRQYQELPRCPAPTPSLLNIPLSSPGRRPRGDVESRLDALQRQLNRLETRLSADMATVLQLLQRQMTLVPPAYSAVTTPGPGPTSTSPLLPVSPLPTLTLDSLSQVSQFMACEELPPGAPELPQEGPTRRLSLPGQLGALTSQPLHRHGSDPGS
Sequence of Stromelysin-1 (P08254 whole entry): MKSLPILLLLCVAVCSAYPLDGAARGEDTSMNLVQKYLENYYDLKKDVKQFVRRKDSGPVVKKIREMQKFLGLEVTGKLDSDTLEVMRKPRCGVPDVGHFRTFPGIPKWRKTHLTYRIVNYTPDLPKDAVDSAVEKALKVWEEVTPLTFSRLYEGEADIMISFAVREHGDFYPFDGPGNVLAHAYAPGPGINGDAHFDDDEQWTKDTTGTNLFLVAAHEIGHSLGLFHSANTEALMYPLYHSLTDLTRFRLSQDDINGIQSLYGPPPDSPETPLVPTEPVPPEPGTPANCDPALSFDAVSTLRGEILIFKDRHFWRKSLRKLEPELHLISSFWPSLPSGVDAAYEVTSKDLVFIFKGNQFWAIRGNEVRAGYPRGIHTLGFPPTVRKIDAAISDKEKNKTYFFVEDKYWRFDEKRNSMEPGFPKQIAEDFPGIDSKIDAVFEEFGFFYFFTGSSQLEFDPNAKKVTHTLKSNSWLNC
Sequence of Cytochrome P450 1A2 (P05177 whole entry): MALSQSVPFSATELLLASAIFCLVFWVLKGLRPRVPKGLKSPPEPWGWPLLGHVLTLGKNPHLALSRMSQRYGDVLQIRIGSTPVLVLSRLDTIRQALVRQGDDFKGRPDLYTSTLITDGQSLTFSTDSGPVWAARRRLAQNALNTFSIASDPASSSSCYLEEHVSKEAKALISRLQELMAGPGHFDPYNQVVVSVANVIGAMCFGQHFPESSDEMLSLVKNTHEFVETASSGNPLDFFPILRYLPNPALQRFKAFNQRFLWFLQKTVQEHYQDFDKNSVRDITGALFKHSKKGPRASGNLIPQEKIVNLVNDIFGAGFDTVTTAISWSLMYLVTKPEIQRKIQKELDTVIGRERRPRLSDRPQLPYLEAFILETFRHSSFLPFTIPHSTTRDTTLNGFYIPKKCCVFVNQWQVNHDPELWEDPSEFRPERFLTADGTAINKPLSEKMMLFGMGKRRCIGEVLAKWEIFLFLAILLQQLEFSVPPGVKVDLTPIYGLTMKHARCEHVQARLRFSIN

For NCCN[C@H]1CC[C@H](CC(=O)N[C@H]2Cc3cccc(C(=O)O)c3OB2O)CC1, which MIC [1] is on record?
The MIC was less than 0.125 µg/mL.

And the MIC [2]?
Its MIC is less than 0.125 µg/mL.

And the Activity [3]?
The Activity was 4.51 log10CFU.

What about the MIC [4] of the same molecule?
Its MIC is greater than 128 µg/mL.

What about the MIC [5] of the same molecule?
The MIC was greater than 128 µg/mL.

What about the MIC [6] of the same molecule?
The MIC was 2 µg/mL (≈ 5.14 µM).

And the “inhibition (INH)” value [7]?
The value was “Not Active”.

And the “inhibition (INH)” value [8]?
The value was “Not Active”.

What about the MIC [9] of the same molecule?
Its MIC is less than 0.125 µg/mL.

What about the “inhibition (INH)” value [10] of the same molecule?
The value was “Not Active”.

And the IC50 [11]?
The IC50 was 0.4 nM.

And the inhibition at 256 ug/ml [12]?
Its inhibition at 256 ug/ml is less than 20%.

What about the MIC [13] of the same molecule?
Its MIC is greater than 128 µg/mL.

What about the “inhibition (INH)” value [14] of the same molecule?
The value was “Not Active”.

What about the inhibition at 256 ug/ml [15] of the same molecule?
Its inhibition at 256 ug/ml is less than 20%.

And the MIC [16]?
Its MIC is 0.25 µg/mL (≈ 0.642 µM).

And the “inhibition (INH)” value [17]?
The value was “Not Active”.

What about the MIC [18] of the same molecule?
Its MIC is greater than 128 µg/mL.

What about the MIC [19] of the same molecule?
Its MIC is greater than 128 µg/mL.

And the “inhibition (INH)” value [20]?
The value was “Not Active”.

What about the “inhibition (INH)” value [21] of the same molecule?
The value was “Not Active”.

And the MIC [22]?
Its MIC is greater than 128 µg/mL.
